# Test results taken from US10731164B2, “Aptamer conjugates with N-heterocyclic carbene metal complexes for targeted drug delivery” (University of Florida Research Foundation, Inc., priority 2014, dated 2020).
# Columns and labels:
# [1] = system: CCRF-CEM cells; test: Flow cytometry analysis, CCRF-CEM cells; type: cell-based; details: 250 nM, 2 h at 4° C.
# Description: Flow Cytometry Analysis was conducted as follows. Cells were plated in a 35 mm cell culture dish (Corning Incorporated, Corning, N.Y., USA) and grown to around 80% confluency for 24 h before the experiments. Cells were washed twice with 1 mL PBS and then incubated with the prepared aptamer-drug conjugate and LIB-drug conjugate at the concentration of 250 nM for 2 h at 4° C. After incubation, cells were washed with washing buffer three times, dispersed in 80 μL binding buffer, and finally subjected to flow cytometry analysis using a FACScan cytometer (Becton Dickinson Immunocytometry Systems, San Jose, Calif., USA). Fluorescence was determined by counting 30,000 events, and data were analyzed with FlowJo software.
# Flow cytometry assays of conjugate 30 (sgc8c-27) with the K562 cell line (left) and the CCRF-CEM cell line are shown in FIGS. 26A and 26B, respectively. Random aptamer sequences conjugated to 27 to create LIB-27 were used as negative control. […] In Similar manner, flow cytometry analysis of MDA-MB-231 cell, PC3 cell, HEK293 cell and HU1545 cell, FIGS. 27A-27D, respectively, after incubated with 32 (AS1411-29) were conducted. AS1411 aptamer was used as positive control, and random library sequences was used as negative control.
# [2] = system: CCRF-CEM cell line; test: MTS cell viability assay, CCRF-CEM cell line; type: cell-based; details: 4 h incubation then 48 h
# Description: All cell lines used in this research were cultured in American Type Culture Collection recommended medium, with 10% fetal bovine serum (Invitrogen, Carlsbad, Calif.) and 0.5 mg/mL penicillin-streptomycin (American Type Culture Collection) at 37° C. under a 5% CO2 atmosphere. CCRF-CEM (T-cell line) and K562 ([…]) were cultured in RPMI 1640 medium; MDA-MB-231 (breast cancer cells were cultured in L-15 medium; DU145 (prostate cancer cell) was cultured in EMEM medium; Hela (cervical cancer cell), HEK293 (human kidney cell) and HU1545v (human untransformed liver cell) were cultured in DMEM medium. Cells were washed before and after incubation with washing buffer [4.5 g/L glucose and 5 mM MgCl2 in Dulbecco's PBS with calcium chloride and magnesium chloride (Sigma-Aldrich)]. Binding buffer was prepared by adding yeast tRNA (0.1 mg/mL; Sigma-Aldrich) and BSA (1 mg/mL; Fisher Scientific) to the washing buffer to reduce background binding. All reagents for buffer preparation and HPLC purification came from Fisher Scientific. […]
# A cell viability assay to measure the cytotoxicity of the aptamer-drug conjugate 21 and aptamer-ligand conjugate 28 were performed, as indicated in FIG. 13. […] The assay was allotted 2 h at 37° C. for development, and then the 490 nm absorbance of each well was collected on a Tecan plate 110 reader. […]
# [3] = system: cis-platin resistant cancer cells; details: background; cited from earlier work
# [4] = system: cervical carcinoma (HeLa) cells; details: background; cited from earlier work
compound,measurement,setting,value
"sgc8c: leukemia-specific aptamer 5′-ATCTAACTGCTGCGCCGCCGGGAAAATACTGTACGGTTAGA-3′ (ATCTAACTGCTGCGCCGCCGGGAAAATACTGTACGGTTAGA; listed as DNA, chemistry not fully specified)",fluorescence intensity of cells (flow cytometry),[1],fluorescence intensity increases
1-(anthracen-9-ylmethyl)-3-(4-N-sgc8c-aptamer-carbamoylbenzyl) benzo[d]imidazolium gold(I) chloride [complex 27],IC50,[2],31.1 ± 2.11 µM
CC(=O)OC[C@H]1O[C@@H]([S-])[C@H](OC(C)=O)[C@@H](OC(C)=O)[C@@H]1OC(C)=O.CCP(CC)CC.[Au+] [Auranofin],effect against cis-platin resistant cancer cells,[3],effective
same,activity against HeLa cells in vitro,[4],highly active
